Data on 1 substance can be found in patent US20230218618A1, “ADMINISTRATION OF SUMO-ACTIVATING ENZYME INHIBITOR AND ANTI-CD38 ANTIBODIES” (MILLENNIUM PHARMACEUTICALS, INC., priority 2020, published 2023).

The subject of the test is Daudi human Burkitt’s Lymphoma cell line. Kind of test: Study 7: Daudi xenograft human Burkitt's lymphoma subcutaneous tumor model (daratumumab or AB79). The format is in vivo, CB17 SCID mice. As for the experimental part: Low tumor volumes can cause problems with the data analysis, so all measurements below 25 cubic mm (including 0 values) were excluded from the analysis. After this exclusion step, the tumor volume was assumed to follow an exponential growth model. More specifically, for a given animal and treatment group,
Pairwise comparisons were performed, where the mean growth rates were compared for various pairs of treatment conditions. The results were summarized using the growth rate inhibition (GRI). Suppose µT and µC are the mean tumor growth rates for the treatment and reference groups, respectively. Define
Here, µAB, µA, µB, and µControl are the mean growth rates for the combination, drug A, drug B, and control groups, respectively. As before, µv is the mean tumor growth rate for the vehicle group, which in most cases is the same as the control group. The standard error of the synergy score was calculated as the square root of the sum of squared standard errors across the four groups. The degrees of freedom were estimated using the Welch-Satterthwaite equation. A hypothesis test was performed to determine if the synergy score differed from 0. P-values were calculated by dividing the synergy score by its standard error and tested against a t-distribution (two-tailed) with the above-calculated degrees of freedom. A P value of less than 0.05 is statistically significant.
The combination results can be interpreted as follows. Statistically significant negative synergy scores indicate a synergistic combination (“Syn.”). Statistically significant positive synergy scores indicate a sub-additive combination (“Sub-add.”) when the combination performs better (i.e. has a lower growth rate) than the best performing single agent. Statistically significant positive synergy scores indicate an antagonistic combination (“Antag.”) when the combination performs worse than the best performing single agent. Scores that are not statistically significant should be considered additive (“Add.”).
Daudi is a human Burkitt’s Lymphoma cell line. A Daudi human xenograft tumor model was generated by subcutaneous inoculation with 2.0 × 10^6 Daudi cells (cell suspension) in 7 weeks old female CB17 SCID mice (Charles River Laboratories, 251 Ballardvale St., Wilmington, MA) in the flank. When the mean tumor volume reached approximately 110 mm3, the animals were randomized into one vehicle control and six treatment groups (n=8/group). Mice were then dosed with 20% HPβCD or Compound I-263a and/or daratumumab or AB79 over a 21-day period. Tumor growth and body weight were measured twice per week during the treatment and post-treatment periods, and mice were humanely euthanized once they had reached their humane endpoint.
A 0.75 mg/mL stock solution of I-263a was formulated weekly in 20% HPβCD and administered intravenously (IV) based on an average body weight using a 0.2 mL dosing volume. Final doses of I-263a received were 7.5 mg/kg. I-263a was administered on a BIW schedule for 3 weeks (Days 1, 4, 8, 11, 15, and 18). Daratumumab (anti-CD38 antibody) (Myoderm Medical Supplies, 48 E Main St., Norristown, PA 19401) was purchased at the beginning of the study and stored at 4° C. according to manufacturer’s instructions. Final dose of daratumumab received was 7.5 mg/kg based on average body weight. Daratumumab was administered intraperitoneally (IP) using a 0.1 mL dosing volume, on a BIW schedule for 3 weeks (Days, 1, 4, 8, 11, 15, and 18). AB79 was formulated on the day of dosing in 0.9% saline and administered intraperitoneally (IP) using a 0.1 mL dosing volume, on a BIW schedule for 3 weeks (Days, 1, 4, 8, 11, 15, and 18). Final dose of AB79 was 7.5 mg/kg based on average body weight.
Tumors were measured twice weekly using Vernier calipers. Tumor volumes were calculated using standard equation: V = W2 × L/2, where V = volume, W = width, and L = length for the tumor. […]

With “AB79: human monoclonal antibody that binds specifically to the CD38 transmembrane glycoprotein”, the “Tumor Volume on Day 22 (±SEM)” value (AB79 7.5 mg/kg BIW IP) is listed as 1033.8 (±208.8). Under “AB79 7.5 mg/kg BIW IP, vs vehicle”, the GRI% amounted to 29%. Besides, the “Tumor growth relative to vehicle-treated tumors (pairwise comparison)” value (each agent 7.5 mg/kg BIW, I-263a p = 0.105, daratumumab p < 0.001, AB79 p = 0.002, both combinations p < 0.001, data up to Day 22) was “tumor growth inhibition”.
